In assay [1] the test system is esterase enzyme from palmarosa inflorescence. As to the kind of experiment: Hydrolysis of geranyl acetate and other acyclic monoterpenyl esters by crude enzymic preparation from palmarosa inflorescence, GLC monitoring. The conditions noted are these: for Hydrolysis by crude enzymic preparation (in words): crude enzymic preparation from palmarosa inflorescence; for % Geranyl acetate hydrolyzed: 10 μmol geranyl acetate, 1 mg protein, 30° C. It counts as biochemical, Cymbopogon martinii. The method, then:
The extraction medium for the esterase enzyme consisted of 0.1 M NaPi buffer (pH 6.5) containing 50 mM sodium metabisulphite, 10 mM β-mercaptoethanol, 10 mM ascrobic acid, 0.25 M sucrose and 1 mM EDTA-Na2. Tissue (palmarosa inflorescence) was homogenized in cold extraction medium (1 g tissue/3 ml) in the presence of 50% (w/w) insoluble PVPP (polyvinyl polypyrrolidone), which prevent enzymic browning of the homogenate. The slurry was squeezed through four layers of muslin cloth and centrifuged at 15,000×g for 60 min. Purified amberlite XAD-4 resin (50% of the tissue weight) was added to the supernatant and kept for 5 minutes at 4° C., to remove the endogenous terpenes of the tissue, which can produce a significant artefact in the determination of esterase enzyme activity. The slurry thus formed was filtered through muslin cloth and the clear supernatant obtained was used to determine the acyclic monoterpenyl esters cleaving esterase activity using geranyl acetate as a model substrate. This supernatant fraction was also used for ammonium sulphate fractionation of the esterase enzyme.
Preliminary enzyme assays were done to optimize the assay conditions, and linearity of the reaction rate with time as well as enzyme concentration. The terpenoid substrates were solubilized by its dispersion in the solution of Tween-20 (10 μg/μmol of the substrate). A gas liquid chromatographic (GLC) procedure has been developed to detect the acyclic monoterpenyl esters cleaving esterase activity. […] Saturating levels (10 μmol) of the substrate geranyl acetate and 0.5 to 1.0 mg of the enzyme protein were used in each assay.
(§1) The geranyl acetate cleaving esterase activity was determined by GLC monitoring of geraniol produced by the hydrolysis of geranyl acetate. The assay system consisted of 0.05M Tris-HCl buffer (pH 8.5), 5 mM MgCl2. 6H2O, 1 mM DTE, 2 mM geranyl acetate and enzyme extract (approximately 1 mg protein), in a total volume of 0.5 ml. The reaction mixture was incubated at 30° C. in a sealed capped tube for 3-4 hours. The geraniol produced and leftover geranyl acetate was then extracted with ether and subjected to GLC. The appearance of geraniol peak indicated the presence of geranyl acetate cleaving esterase activity (FIG. 1). A blank with the boiled enzyme was also run simultaneously.
(§2) The gas liquid chromatographic (GLC) analysis, for the determination of geraniol produced and leftover geranyl acetate, was performed using a Perkin Elmer (model 3920 B) apparatus equipped with FID (flame ionization detector) stainless steel column (2 m×3 mm i.d.) packed with 10% FFAP (free fatty acid phase) on chromosorb WAW (80-100 mesh). The operating conditions were: Column temperature isothermal at 165° C., injector and detector temperature 200° C. and 250° C. respectively. Nitrogen and hydrogen flow rate were a adjusted to 30 ml/min and 28 ml/min, respectively. The geraniol and geranyl acetate peaks were identified by coinjecting authentic standards and quantified using a Varian integrator (model 4400).
Time course experiment was performed to study the linearity of the hydrolysis of geranyl acetate during the incubation period using enzymic preparation from palmarosa inflorescence. A linear catalytic rate was found up to six hours of incubation at 30° C. Almost 75% of the geranyl acetate was hydrolyzed after 24 hours of incubation (Table 1, FIG. 2).

The test system of assay [2] is esterase enzyme from palmarosa inflorescence (60-80% ammonium sulphate precipitated fraction). As to the kind of experiment: Hydrolysis of mixture of acyclic monoterpenyl esters by 60-80% ammonium sulphate precipitated protein fraction. The conditions noted are these: 60-80% fraction, 1 mg protein; ester rich fraction from citronella java (geranyl acetate:geranyl formate:citronellyl acetate 60:18:21) as substrate. In kind it is biochemical, Cymbopogon martinii. How it is done: as §1, §2
Monoterpenyl ester rich fraction from citronella java containing geranyl acetate, geranyl formate and citronellyl acetate in proportion (60:18:21) was used as substrate. […] Furthermore, crude esterase enzyme was also able to cleave these acyclic monoterpenyl esters but to a lesser extent.

The structures appear in SMILES notation. Counter-ions that a name gives are not always drawn.

With `CC(=O)OCCC(C)CCC=C(C)C` (centres unmarked) [Citronellyl acetate, citronellyl acetate], in assay [1], the “Hydrolysis by crude enzymic preparation (in words)” value is “could also hydrolyze”. Also, the “% esters hydrolyzed per 3 hours” value in assay [2] stood at 6.78%.
Regarding `CC(C)=CCC/C(C)=C/COC=O` [Geranyl formate, geranyl formate], the “Hydrolysis by crude enzymic preparation (in words)” value in assay [1] is “could also hydrolyze”. In addition, the “% esters hydrolyzed per 3 hours” value in assay [2] worked out at 4.86%.
Regarding `CC(=O)OC/C=C(\C)CCC=C(C)C` [geranyl acetate], the “% Geranyl acetate hydrolyzed” value in assay [1] (incubation time 2 hour) was determined as 8.2%; in assay [1] (incubation time 4 hour) it was 22.3%; in assay [1] (incubation time 6 hour), 32%; in assay [1] (incubation time 8 hour), 35.7%; in assay [1] (incubation time 10 hour), 47.1%; in assay [1] (incubation time 12 hour), 53.2%. In assay [2], the “% esters hydrolyzed per 3 hours” value turned out to be 19.23%.

For the origin of these results see patent US20020164755A1, “Stable esterase, a process for the extraction thereof, and use thereof for cleaving acyclic monoterpenyl esters into their monoterpenols” (Council of Scientific and Industrial Research, priority 2000, published 2002).
